Source: patent US12427148B2, “Cancer treatment targeted to tumor adaptive responses to protein synthesis stress” (priority 2018, dated 2025)

Legend:
mPCa-PDX tumor = assay: Preclinical trial in patient-derived xenograft from lymph node metastasis; format: in vivo, mouse
Procedure: (§1) FIGS. 5A, 5B, 5C, 5D, 5E, 5F, and 5G. FIGS. 5A, 5B, and 5C depict quantification of protein expression as relative mean IF intensity normalized to adjacent stromal tissue for: FIG. 5A: benign, FIG. 5B PCa, and mPCa cell types. FIG. 5D and FIG. 5E depict Kaplan-Meier tumor survival curves for mice bearing pPCa (5D) or mPCa (5E) tumors treated with ISRIB (10 mg/kg) or vehicle (n=8, per cohort; **P=0.01, log-rank test). […] FIG. 5F depicts quantification of PDX tumors treated with vehicle or ISRIB (10 mg/kg); (n=3, ***P<0.001, t test). FIG. 5G depicts quantification of newly synthesized proteins in vivo, assessed by incorporation of OP-Puro within PDX treated with ISRIB (10 mg/kg) or vehicle (n=3 to 4 per arm, mean±SEM; *P<0.05, t test). n.s., not significant. MFI, mean fluorescence intensity.
(§2) Next, it was sought to functionally evaluate whether the UPR pathway could be targeted, specifically through P-eIF2α, in advanced human PCa. Although it is historically difficult to generate human prostate patient-derived xenograft (PDX) models, this was successfully achieved with similar characteristics to the Pten^fl/fl;Myc^Tg mice to assess the effects of ISRIB on cancer growth and mortality. In particular, two PDX models were generated: one derived from a primary tumor, herein referred to as pPCa, and one derived from a lymph node metastasis in the left internal iliac chain from the same patient, herein referred to as mPCa. […] A significant increase in P-eIF2α was observed only in the mPCa (P<0.01).
(§3) To test the therapeutic efficacy of ISRIB in human PCa, a preclinical trial was performed on the stably passaged PDX model.

PERK = PERK inhibitor as described; cited from earlier work
[1] = system: Pten^fl/fl mice prostate tumors; assay: Preclinical trial in mice with developed prostate tumors, MRI prostate volume; format: in vivo, mouse
Procedure: (§4) To evaluate the necessity of P-eIF2α for promoting tumor growth or maintenance in vivo, a preclinical trial was conducted. Mice with developed tumors were imaged by magnetic resonance imaging (MRI) to confirm a measurable baseline of prostate volume per mouse and then grouped into cohorts for either vehicle or ISRIB treatment daily over the course of 6 weeks.

mPCa PDX = assay: Newly synthesized proteins in vivo by OP-Puro incorporation in PDX; parameters: species or system mouse; details: ISRIB 10 mg/kg
Procedure: as §1
(§5) Next, it was determined whether a metastatic PCa tumor, harboring high MYC and loss of PTEN activity in a complex genetic background of human PCa, relies on eIF2α phosphorylation as an adaptive response to restrain global protein synthesis. Therefore, newly synthesized proteins in vivo were assessed by measuring the incorporation of O-propargyl-puromycin (OP-Puro) within the primary and metastatic tumor-derived PDXs, which have low or high P-eIF2α, respectively. […] Within the area of intratumor ATF4 loss, apoptosis and decreased proliferation assessed by TUNEL and Ki67 staining of mPCa PDX was observed.

pPCa tumors = assay: as above; parameters: species or system mouse; details: ISRIB 10 mg/kg
Procedure: as §1, §5

[2] = system: Pten^fl/fl;Myc^Tg organoid cultures; assay: 35S methionine incorporation (newly synthesized proteins) in organoid cultures; format: cell-based, mouse; details: Pten^fl/fl;Myc^Tg cells, ISRIB treatment
Procedure: (§6) To evaluate the effects of these key oncogenes on global protein synthesis, newly synthesized proteins were assessed by incorporation of ^35S-labeled methionine in organoid cultures. Primary mouse three-dimensional organoid cultures were established to recapitulate the cellular environment of the murine prostate gland ex vivo. Organoids were derived from dissociated mouse prostate tissue containing a mixed population of luminal and basal cell types to mimic the histology observed in vivo. Western blot analysis confirmed that Myc^Tg expression and PTEN loss were evident and associated with increased GFP expression and AKT phosphorylation. […] On the contrary, it was observed that an unanticipated but significant dampening in global protein synthesis occurred in Ptenfl/fl;MycTg mice (P=0.01), despite the fact that these mice developed more aggressive PCa (FIG. 1D).
(§7) A general UPR response may promote adaptation to proteotoxic and ER stress, whereas the activation of P-eIF2α could place a direct brake on the overwhelming burden of protein synthesis that occurs during more aggressive tumorigenesis. To test this hypothesis, the organoid cultures were employed, which recapitulate the in vivo phenotype. […]

pPCa-PDX tumor = assay: Preclinical trial in patient-derived xenograft from primary tumor; format: in vivo, mouse
Procedure: as §1, §2, §3

mCRPC PDX = assay: Metastatic castration-resistant PCa PDX, survival and PSMA PET/CT imaging; format: in vivo, mouse
Text: In hormone-sensitive metastatic PCa, androgen deprivation therapy (ADT) remains the mainstay treatment; however, these tumors inevitably develop resistance to ADT and progress into the lethal form of metastatic castration-resistant PCa (mCRPC). Characterization of the hormone-sensitive metastatic disease has not been predictive of outcomes in the clinical setting of lethal mCRPC. To directly study the contribution of P-eIF2α to metastasis, an additional PDX (herein mCRPC PDX) was generated derived from a patient with mCRPC despite prolonged treatment with complete androgen blockage using leuprolide (ADT) and antiandrogen therapy (enzalutamide). Three weeks after implantation of the mCRPC tumor under the mouse renal capsule, tumor dissemination to the liver, distant kidney, lymph nodes, and spleen was observed.
To examine the role of P-eIF2α from the early stages of metastatic growth to late stages of dissemination, a prostate-specific membrane antigen [^68Ga-PSMA-11 PET/computed tomography (CT)] scan was used to trace the progression of very small metastases from early to late stages of dissemination, which were not visible by conventional imaging modalities such as ^18F-DG PET/CT. Prostate-specific membrane antigen (PSMA) is highly expressed on the surface of PCa cells and allows sensitive staging to evaluate therapy response in the clinical setting. […]

[3] = system: Pten^fl/fl;Myc^Tg mice prostate tumors; assay: Preclinical trial in mice with developed prostate tumors, MRI prostate volume; format: in vivo
Procedure: as §4

[4] = system: Pten^fl/fl organoid cultures; assay: 35S methionine incorporation (newly synthesized proteins) and ATF4 expression in organoid cultures; format: cell-based, mouse; details: ISRIB treatment
Procedure: as §6, §7

[5] = system: RWPE-1 shPTEN;MYC^OE cells; assay: Apoptosis (annexin V-positive cells by flow cytometry) in engineered human prostate epithelial cells; format: cell-based; details: 500 nM ISRIB for 9 hours, shPTEN;MYC^OE cells relative to control samples
Procedure: FIGS. 4A and 4B. FIG. 4A depicts quantification of annexin V-positive cells analyzed by flow cytometry relative to control cells after treatment with DMSO or 500 nM ISRIB for 9 hours (n=3, mean±SEM) *P<0.05, t test. FIG. 4B depicts Cox proportional hazards regression results in a Forest plot of hazard ratios and 95% CI for factors associated with risk of clinical progression after surgery. Independent factors are tumor with PTEN loss/low P-eIF2α or PTEN loss/high P-eIF2α versus a reference group with normal PTEN expression; age in years; PSA in nanograms per milliliter; Gleason score>7 versus 6; and pathological stage T3-T4 versus T2 at the time of prostatectomy.
To extend these observations directly to human disease, human cell lines were created to mimic the genetic mouse models. Human RWPE-1 epithelial cells were created to stably knock down PTEN (shPTEN) with or without MYC overexpression. The combination of PTEN loss with increased MYC expression activated PERK signaling and P-eIF2α, showing that the adaptive response that we had observed in mice is also triggered in human prostate cells.

[6] = pPCa-PDX, low P-eIF2α, ISRIB treatment

O=C(COc1ccc(Cl)cc1)NC1CCC(NC(=O)COc2ccc(Cl)cc2)CC1 (stereo not drawn) [ISRIB]
cell death: TUNEL staining and cleaved caspase 3 expression (mPCa-PDX tumor; mPCa-PDX, after 9 days of ISRIB treatment): increased
tumor size (mPCa-PDX tumor; mPCa-PDX, after 9 days of ISRIB treatment, P<0.01): significant tumor regression
survival (mPCa-PDX tumor; mice bearing metastatic tumor with high P-eIF2α, ISRIB 10 mg/kg, P<0.01): significantly prolonged survival
IC50 (PERK): 5 nM
increase in growth over individual baseline measurements ([1]; by 6 weeks): ~40%
tumor size by MRI ([1]; vehicle or daily ISRIB, 3 weeks): continued tumor growth
global protein synthesis (OP-Puro incorporation) (mPCa PDX): marked increase
global protein synthesis (OP-Puro incorporation) (pPCa tumors): no change
newly synthesized proteins [2]: marked increase
effectiveness of ISRIB treatment (survival) (pPCa-PDX tumor; pPCa tumor, ISRIB 10 mg/kg): short-lived
cell death (pPCa-PDX tumor; [6]): no significant cell death
tumor size (pPCa-PDX tumor; [6]): did not show regression but stabilized with eventual tumor regrowth
survival (mCRPC PDX; mCRPC PDX mice bearing distal metastatic lesions, P=0.01): significantly prolonged survival
metastases at distal sites by PSMA PET/CT (mCRPC PDX; mCRPC PDX mice treated with ISRIB): substantial metastatic regression
tumor size by MRI ([3]; ISRIB-treated Pten^fl/fl;Myc^Tg mice, by 6 weeks): no progression in tumor size
toxicity ([3]; Pten^fl/fl;Myc^Tg mice, daily ISRIB treatment): no signs of toxicity
tumor size by MRI ([3]; Pten^fl/fl;Myc^Tg mice, daily ISRIB, 3 weeks): tumor regression within 3 weeks
immune cell infiltration (CD45) ([3]; after 3 weeks of ISRIB treatment, regardless of prostate tumor genotype): no significant changes
ATF4 expression [4]: decrease
protein synthesis (newly synthesized proteins) [4]: not altered
apoptosis (annexin V-positive cells) [5]: marked increase in apoptosis
